Measurements as given in US5334728A (The Trustees of The University of Pennsylvania, priority 1992, dated 1994).
Several values for one entry are separate records, joined by “and”; a condition that tells them apart may be missing. Equal values may be shown once.

Legend:
[1] = target: T1, dopamine D-2 receptor (Rattus norvegicus, UniProt P61169); experiment: Saturation binding of [^125 I]IBF to rat striatal homogenate in vitro
T1 construct: Striatal tissues were excised, pooled and homogenized in 100 volumes (w/v) of ice-cold Tris-HCl buffer; from tissue; host or cells: rat striatum (male Sprague-Dawley), twice-centrifuged membrane homogenate
T1 sequence (P61169 whole entry): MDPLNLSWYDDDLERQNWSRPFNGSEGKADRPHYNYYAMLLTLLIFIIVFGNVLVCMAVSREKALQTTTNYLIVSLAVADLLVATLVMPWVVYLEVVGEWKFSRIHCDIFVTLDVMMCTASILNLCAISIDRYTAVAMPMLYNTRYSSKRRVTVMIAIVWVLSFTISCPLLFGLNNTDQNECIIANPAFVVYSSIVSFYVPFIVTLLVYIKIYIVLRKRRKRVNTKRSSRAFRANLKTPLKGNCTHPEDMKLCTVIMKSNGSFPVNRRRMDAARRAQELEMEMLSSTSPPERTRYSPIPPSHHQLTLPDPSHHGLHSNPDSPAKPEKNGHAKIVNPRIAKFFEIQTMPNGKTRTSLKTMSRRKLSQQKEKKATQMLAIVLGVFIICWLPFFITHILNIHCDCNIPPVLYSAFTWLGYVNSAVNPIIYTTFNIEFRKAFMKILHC
Procedure: (§1) Male Sprague-Dawley rats (200-250 g) were decapitated, and the brains were removed and placed in ice. Striatal tissues were excised, pooled and homogenized in 100 volumes (w/v) of ice-cold Tris-HCl buffer (50 mM), pH 7.4. The homogenates were centrifuged at 20,000× g for 20 min. The resultant pellets were rehomogenized in the same buffer and centrifuged again. The final pellets were resuspended in assay buffer containing: 50 mM Tris buffer pH 7.4, 120 mM NaCl, 5 mM KCl, 2 mM CaCl2 and 1 mM MgCl2 and kept at -20° C. for the following binding assay.
(§2) The binding assays were performed by incubating 50 μl of tissue preparations containing 40-60 μg of protein with appropriate amounts of l-125 labeled ligand and competitors in a total volume of 0.2 ml of the assay buffer. After an incubation period of 15 min at 37° C. (with stirring), the samples were rapidly filtered in the cell harvester (Brandel M-24R) under vacuum through Whatman GF/B glass fiber filters pretreated with 0.2% protamine base and washed with 3×5 ml of cold (4° C.) 50 mM Tris-HCl buffer, pH 7.4. […] The filters were counted in a gamma counter (Beckman 5500) at an efficiency of 70%.

[2] = target: T1, dopamine D-2 receptor; experiment: Competition binding using [^125 I]IBF, rat striatal membranes
Procedure: *0.15-0.30 nM [^125 I]IBF was incubated in the presence of the
indicated compounds in 7-11 concentrations and of membrane preparation
from rat striatum. Each value represents the mean ± SEM of three to
as §1, §2

[3] = Biodistribution in rats after IV injection; format: in vivo, rat
Procedure: Male Sprague Dawley rats (225-300 g), which were allowed free access to food and water, were used for in vivo biodistribution study. While under halothane anesthesia, 0.2 ml of a saline solution containing [^125 l]IBF, 21, (8-10 μCi) was injected directly into the femoral vein, and the rats were sacrificed at various time points postinjection by cardiac excision under halothane anesthesia. The organs of interest were removed, weighed and the radioactivity was counted using a Beckman gamma automatic counter (Model 4000). The percent dose per organ was calculated by a comparison of the tissue counts to suitably diluted aliquots of the injected material. Total activities of blood and muscle were calculated assuming that they are 7% and 40% of total body weight, respectively.

[4] = tested on: CNS D-2 dopamine receptors; experiment: Regional brain distribution in rats after iv injection; format: in vivo; details: rat; for striatum/cerebellum (ST/CB) ratio: % dose/gram ratio
Source text: FIG. 2 is a bar graph showing ratios (based on % dose/gram) of regional cerebral uptake of [^125 I]IBF (CX: cortex, ST: striatum, CB: cerebellum, HP: hippocampus).
(§3) (See FIG. 2). This type of profound increase in target to nontarget ratio versus time was not observed for the other two regions (hippocampus and cortex) (FIG. 2). […] The data have been further confirmed by an in vivo imaging study of a monkey.
Regional brain distribution in rats was obtained after an iv injection of [^125 l]IBF, 21. By dissecting, weighing and counting samples from different brain regions (cortex, striatum, hippocampus and cerebellum), % dose/gram of samples was calculated by comparing the sample counts with the counts of the diluted initial dose. The uptake ratio of each region was obtained by dividing % dose/gram of each region with that ot the cerebellum.

[5] = tested on: CNS D-2 dopamine receptors; experiment: Ex vivo autoradiography (preliminary); format: in vivo; details: preliminary study
Source text: as §3

[6] = tested on: CNS D-2 dopamine receptors; experiment: In vivo planar imaging of a monkey; details: planar images
Source text: as §3

[7] = 2 min, IV, average of 3 rats ± SD
[8] = 15 min, IV, average of 3 rats ± SD
[9] = 30 min, IV, average of 3 rats ± SD
[10] = 60 min, IV, average of 3 rats ± SD
[11] = 120 min, IV, average of 3 rats ± SD

specific binding saturability [1]: saturable | Kd ([1]; rat striatal homogenate in vitro, read-out: Kd, specific binding): 0.106 ± 0.015 nM | nonspecific binding ([1]; saturation curve, FIG. 1): extremely low nonspecific binding | nonspecific binding at Kd ([1]; saturation curve, FIG. 1): 5% | Blood uptake [3, 7]: 3.50 ± 0.22 % Dose/Organ | Brain/Blood ratio [3, 7]: 2.64 ± 0.32 % dose/gram ratio | Heart uptake [3, 7]: 0.81 ± 0.25 % Dose/Organ | Kidney uptake [3, 7]: 7.58 ± 0.66 % Dose/Organ | Liver uptake [3, 7]: 16.32 ± 4.00 % Dose/Organ | Muscle uptake [3, 7]: 11.25 ± 2.62 % Dose/Organ | Skin uptake [3, 7]: 8.54 ± 1.21 % Dose/Organ | Spleen uptake [3, 7]: 0.96 ± 0.08 % Dose/Organ | Thyroid uptake [3, 7]: 0.06 ± 0.02 % Dose/Organ | Blood uptake [3, 8]: 1.80 ± 0.31 % Dose/Organ | Brain uptake [3, 8]: 0.54 ± 0.06 % Dose/Organ | Brain/Blood ratio [3, 8]: 3.01 ± 0.91 % dose/gram ratio | Heart uptake [3, 8]: 0.20 ± 0.03 % Dose/Organ | Kidney uptake [3, 8]: 2.92 ± 0.30 % Dose/Organ | Liver uptake [3, 8]: 16.16 ± 7.54 % Dose/Organ | Lung uptake [3, 8]: 1.85 ± 0.33 % Dose/Organ | Muscle uptake [3, 8]: 14.36 ± 1.29 % Dose/Organ | Skin uptake [3, 8]: 8.46 ± 0.56 % Dose/Organ | Spleen uptake [3, 8]: 0.58 ± 0.08 % Dose/Organ | Thyroid uptake [3, 8]: 0.03 ± 0.004 % Dose/Organ | Blood uptake [3, 9]: 1.26 ± 0.10 % Dose/Organ | Brain uptake [3, 9]: 0.30 ± 0.05 % Dose/Organ | Brain/Blood ratio [3, 9]: 2.26 ± 0.33 % dose/gram ratio | Heart uptake [3, 9]: 0.11 ± 0.01 % Dose/Organ | Kidney uptake [3, 9]: 1.58 ± 0.46 % Dose/Organ | Liver uptake [3, 9]: 11.59 ± 0.93 % Dose/Organ | Muscle uptake [3, 9]: 9.00 ± 1.66 % Dose/Organ | Skin uptake [3, 9]: 5.34 ± 0.17 % Dose/Organ | Spleen uptake [3, 9]: 0.31 ± 0.03 % Dose/Organ | Thyroid uptake [3, 9]: 0.02 ± 0.004 % Dose/Organ | Blood uptake [3, 10]: 0.98 ± 0.11 % Dose/Organ | Brain/Blood ratio [3, 10]: 1.90 ± 0.29 % dose/gram ratio | Heart uptake [3, 10]: 0.05 ± 0.002 % Dose/Organ | Kidney uptake [3, 10]: 1.01 ± 0.01 % Dose/Organ | Liver uptake [3, 10]: 9.84 ± 1.50 % Dose/Organ | Lung uptake [3, 10]: 0.37 ± 0.10 % Dose/Organ | Muscle uptake [3, 10]: 4.97 ± 0.56 % Dose/Organ | Skin uptake [3, 10]: 2.38 ± 0.17 % Dose/Organ | Spleen uptake [3, 10]: 0.09 ± 0.01 % Dose/Organ | Blood uptake [3, 11]: 0.53 ± 0.02 % Dose/Organ | Brain uptake [3, 11]: 0.07 ± 0.006 % Dose/Organ | Brain/Blood ratio [3, 11]: 1.53 ± 0.12 % dose/gram ratio | Heart uptake [3, 11]: 0.02 ± 0.001 % Dose/Organ | Kidney uptake [3, 11]: 0.68 ± 0.32 % Dose/Organ | Liver uptake [3, 11]: 3.95 ± 0.31 % Dose/Organ | Muscle uptake [3, 11]: 2.30 ± 0.22 % Dose/Organ | Skin uptake [3, 11]: 1.18 ± 0.18 % Dose/Organ | Spleen uptake [3, 11]: 0.03 ± 0.007 % Dose/Organ | Thyroid uptake [3, 11]: 0.08 ± 0.03 % Dose/Organ | in vivo deiodination ([3]; from thyroid uptake at one hour postinjection): little or no in vivo deiodination | in vivo stability compared with [^125 I]IBZM ([3]; rat, in vivo): better in vivo stability | lung clearance ([3]; rats): rapidly cleared | Brain uptake ([3]; rats, intravenous): good brain uptake in rats | striatum/cerebellum (ST/CB) ratio ([4]; 2 min): 2.0 | striatum/cerebellum (ST/CB) ratio ([4]; 15 min): 3.8 | striatum/cerebellum (ST/CB) ratio ([4]; 30 min): 6.2 | striatum/cerebellum (ST/CB) ratio ([4]; 60 min): 18 | striatum/cerebellum (ST/CB) ratio ([4]; 120 min): 48 | increase in target to nontarget ratio versus time, hippocampus and cortex ([4]; hippocampus and cortex): not observed | retention in the striatum [4]: prolonged retention
SMILES: CCN1CCC[C@H]1CNC(=O)c1cc([125I])cc2c1OCC2 [[^125 I]IBF]
selectivity of binding to the dopamine D-2 receptor [2]: binds specifically and selectively to the dopamine D-2 receptor | Brain uptake [3, 7]: 0.98 ± 0.15 % Dose/Organ and 0.98 % Dose/Organ | Lung uptake [3, 7]: 6.14 ± 1.19 % Dose/Organ and 6.14 % Dose/Organ | Lung uptake [3, 9]: 0.82 ± 0.08 % Dose/Organ and 0.82 % Dose/Organ | Brain uptake [3, 10]: 0.17 ± 0.02 % Dose/Organ and 0.17 % Dose/Organ | Thyroid uptake [3, 10]: 0.02 ± 0.01 % Dose/Organ and 0.02 % Dose/Organ | Liver uptake ([3]; rats, first hour to two hours postinjection): remained high throughout the first hour and gradually declined at two hours postinjection | striatal uptake and cerebellar activity [5]: high striatal uptake and low cerebellar activity | uptake and retention in the basal ganglia [6]: high uptake and retention in the basal ganglia
